ChEMBL document CHEMBL5608207, “Development of narrow-spectrum topoisomerase-targeting antibacterials against mycobacteria” (Eur J Med Chem, 2024)
Values after ≈ are worked out from the molar mass of the structure shown. Active and inactive are the calls of the source. The calls are words filed in the database; no cut-off is given here.

Legend:
[1] = tested on: Mycolicibacterium smegmatis; assay: Antimycobacterial activity against Mycobacterium smegmatis MC2 incubated for 2 days by resazurin reduction microplate assay; type: functional; settings: MC2, 48 h, time 2 day
[2] = tested on: Mycobacteroides abscessus; assay: Antimycobacterial activity against Mycobacterium abscessus RIVM incubated for 1 day by resazurin reduction microplate assay; type: functional; settings: 24 h
[3] = tested on: Mycobacterium tuberculosis; assay: Antimycobacterial activity against Mycobacterium tuberculosis H37Rv ATCC 25618 assessed as reduction in viability incubated for 6 days by resazurin reduction microplate assay; type: functional; settings: H37Rv ATCC 25618, 144 h, time 6 day
Escherichia coli [4] = assay: Antibacterial activity against Escherichia coli ATCC 25922 incubated for 18 hrs by serial broth microdilution method; type: functional
Staphylococcus aureus = assay: Antibacterial activity against Staphylococcus aureus ATCC 29213 incubated for 18 hrs by serial broth microdilution method; type: functional
THP-1 [5] = assay: Cytotoxicity against human THP-1 cells assessed as reduction in viability at 40 uM pretreated with PMA for 48 hrs followed by washout and compound addition for 5 days by resazurin sodium salt method; type: toxicity, cell-based; settings: thp-1, 120 h, time 5 day
THP-1 [6] = assay: Cytotoxicity against replicating human THP-1 cells upto 40 uM; type: toxicity, cell-based; settings: thp-1, 40 µM
[7] = tested on: Mycobacterium tuberculosis; assay: (§1) Antimycobacterial activity against GFP-expressing Mycobacterium tuberculosis H37Rv infected in PMA-treated THP-1 cells assessed as bacterial viability pre-infected for 3 hrs prior to gentamycin addition for 1 hr followed by washout and compound addition measured after 4 days by fluorescence microscopic analysis; type: functional, organism-based; settings: dose 1-30 µM, time 4.0 day
[8] = tested on: Mycobacterium tuberculosis; assay: as §1, with “increase in number of surviving macrophages at 1 to 30 uM” for “bacterial viability”; type: functional, organism-based; settings: dose 1-30 µM, time 4.0 day
Escherichia coli [9] = assay: Antibacterial activity against Escherichia coli ATCC 25922 harboring deltaTolC mutant incubated for 18 hrs by serial broth microdilution method; type: functional
Pseudomonas aeruginosa = assay: Antibacterial activity against Pseudomonas aeruginosa ATCC 27853 incubated for 18 hrs by serial broth microdilution method; type: functional
Acinetobacter baumannii = assay: Antibacterial activity against Acinetobacter baumannii ATCC17978 incubated for 18 hrs by serial broth microdilution method; type: functional
Klebsiella pneumoniae = assay: Antibacterial activity against Klebsiella pneumoniae ATCC10031 incubated for 18 hrs by serial broth microdilution method; type: functional
Enterobacter cloacae = assay: Antibacterial activity against Enterobacter cloacae ATCC13047 incubated for 18 hrs by serial broth microdilution method; type: functional
Segatella copri = assay: Antibacterial activity against Prevotella copri DSM 18205 measured at 15 mins interval for 24 hrs by broth microdilution method; type: functional
[10] = tested on: Bacteroides thetaiotaomicron; assay: Antibacterial activity against Bacteroides thetaiotaomicron DSM 2079 measured at 15 mins interval for 24 hrs by broth microdilution method; type: functional
Anaerostipes hadrus = assay: Antibacterial activity against Anaerostipes hadrus DSM 3319 measured at 15 mins interval for 24 hrs by broth microdilution method; type: functional
[11] = Acute toxicity in zebrafish embryo assessed as effect on embryo survival upto 5 mM measured for 4 days; design: species or system Danio rerio; settings: in vivo, 96 h, 5000 µM, time 4 day
[12] = Acute toxicity in zebrafish embryo assessed as effect on embryo development upto 5 mM measured for 4 days; design: species or system Danio rerio; settings: in vivo, 96 h, 5000 µM, time 4 day
[13] = Acute toxicity in zebrafish embryo assessed as change in behavior upto 5 mM measured for 4 days; design: species or system Danio rerio; settings: in vivo, 96 h, 5000 µM, time 4 day
[14] = Kinetic solubility of compound in PBS at 100 uM incubated for 20 hrs in shaker by LC-MS/MS analysis; type: physicochemical; settings: read-out: Kinetic_solubility
[15] = Protein binding in human plasma assessed as free fraction at 10 uM incubated for 4 hrs by rapid equilibrium dialysis based LC-MS/MS method; type: ADME, cell-free
[16] = Protein binding in mouse plasma assessed as free fraction at 10 uM incubated for 4 hrs by rapid equilibrium dialysis based LC-MS/MS method; type: ADME, cell-free
[17] = tested on: Mycobacterium tuberculosis; assay: as §1, with “viability at 10 uM” for “viability”, “analysis (reference value: 100%)” for “analysis”; type: functional; settings: time 4 day
[18] = tested on: Mycobacterium tuberculosis; assay: as §1, with “number of viable macrophages at 10 uM” for “bacterial viability”; type: functional; settings: time 4 day
[19] = biological target: DNA topoisomerase 2-alpha (Homo sapiens) (UniProt P11388); assay: Inhibition of human DNA topoisomerase II alpha assessed as residual activity at 100 uM using supercoiled pNO1 plasmid as substrate incubated for 30 mins by diamond dye staining based fluorescence microplate reader assay relative to control
[20] = biological target: DNA topoisomerase 2-alpha (Homo sapiens) (UniProt P11388); assay: Inhibition of human DNA topoisomerase II alpha assessed as residual activity at 10 uM using supercoiled pNO1 plasmid as substrate incubated for 30 mins by diamond dye staining based fluorescence microplate reader assay relative to control

Sequence of DNA topoisomerase 2-alpha (Homo sapiens) (P11388 whole entry): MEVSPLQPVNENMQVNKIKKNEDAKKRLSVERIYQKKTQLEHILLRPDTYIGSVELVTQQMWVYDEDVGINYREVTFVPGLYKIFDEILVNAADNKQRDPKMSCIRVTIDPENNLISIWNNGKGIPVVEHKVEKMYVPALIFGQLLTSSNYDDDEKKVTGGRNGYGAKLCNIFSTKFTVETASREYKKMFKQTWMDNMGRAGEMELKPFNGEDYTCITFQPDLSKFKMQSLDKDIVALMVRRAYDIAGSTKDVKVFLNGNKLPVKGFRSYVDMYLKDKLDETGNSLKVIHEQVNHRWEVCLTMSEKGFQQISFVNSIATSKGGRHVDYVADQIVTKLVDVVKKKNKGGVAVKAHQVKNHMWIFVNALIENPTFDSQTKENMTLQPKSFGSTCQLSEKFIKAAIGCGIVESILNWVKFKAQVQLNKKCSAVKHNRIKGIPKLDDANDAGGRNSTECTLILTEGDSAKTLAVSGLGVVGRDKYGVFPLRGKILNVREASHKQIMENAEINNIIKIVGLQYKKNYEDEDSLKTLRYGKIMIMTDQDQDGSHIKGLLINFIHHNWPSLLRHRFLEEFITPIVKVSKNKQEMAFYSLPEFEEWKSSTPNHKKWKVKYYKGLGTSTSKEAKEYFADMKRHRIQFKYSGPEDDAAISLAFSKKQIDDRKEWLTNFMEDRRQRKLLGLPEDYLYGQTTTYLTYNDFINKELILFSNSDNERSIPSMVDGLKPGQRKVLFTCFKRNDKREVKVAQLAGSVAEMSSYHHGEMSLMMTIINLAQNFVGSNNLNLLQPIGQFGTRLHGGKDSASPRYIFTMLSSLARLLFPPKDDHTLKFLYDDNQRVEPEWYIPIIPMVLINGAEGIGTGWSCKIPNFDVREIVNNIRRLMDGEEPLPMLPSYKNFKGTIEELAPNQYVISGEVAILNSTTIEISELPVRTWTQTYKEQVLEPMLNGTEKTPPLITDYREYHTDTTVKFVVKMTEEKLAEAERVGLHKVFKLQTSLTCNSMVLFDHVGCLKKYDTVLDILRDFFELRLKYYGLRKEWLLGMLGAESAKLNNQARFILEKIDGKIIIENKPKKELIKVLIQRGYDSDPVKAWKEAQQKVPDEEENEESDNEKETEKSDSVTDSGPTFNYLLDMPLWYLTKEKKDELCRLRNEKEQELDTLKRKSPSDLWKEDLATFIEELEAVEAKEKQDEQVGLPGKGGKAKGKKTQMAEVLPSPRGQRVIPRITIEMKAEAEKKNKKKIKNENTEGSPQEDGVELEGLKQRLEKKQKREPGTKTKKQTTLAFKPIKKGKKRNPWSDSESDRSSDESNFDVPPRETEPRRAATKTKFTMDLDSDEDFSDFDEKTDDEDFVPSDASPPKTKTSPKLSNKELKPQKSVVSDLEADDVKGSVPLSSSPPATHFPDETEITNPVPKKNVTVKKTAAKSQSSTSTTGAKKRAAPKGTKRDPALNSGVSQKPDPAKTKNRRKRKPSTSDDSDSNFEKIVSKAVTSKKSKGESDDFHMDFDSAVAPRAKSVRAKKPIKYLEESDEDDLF

SMILES: Cc1[nH]c(C(=O)Nc2nc3c(OC(CN(C)C)c4ccccc4)cc(C(=O)O)cc3s2)c(Cl)c1Cl (centres undefined)
- MIC90 [1]: 0.16 µM (≈ 0.0853 µg/mL)
- MIC90 [2]: 0.63 µM (≈ 0.336 µg/mL)
- MIC90 [3]: 1.25 µM (≈ 0.667 µg/mL)

SMILES: Cc1[nH]c(C(=O)Nc2nc3c(OC(C)CN(C)C)cc(C(=O)O)cc3s2)c(Cl)c1Cl (centres undefined)
- MIC90 [1]: 0.63 µM (≈ 0.297 µg/mL)
- MIC90 [2]: 0.63 µM (≈ 0.297 µg/mL)
- MIC90 [3]: 2.5 µM (≈ 1.18 µg/mL)
- MIC90 (Escherichia coli [4]): > 135 µM
- MIC90 (Staphylococcus aureus): > 135 µM
- Activity (THP-1 [5]): 34%
- Activity (THP-1 [6]): Non-Toxic
- Activity [7]: Dose-Dependent Effect
- Activity [8]: inactive
- MIC90 (Escherichia coli [9]): 2 µM (≈ 0.943 µg/mL)
- MIC90 (Pseudomonas aeruginosa): > 135 µM
- MIC90 (Acinetobacter baumannii): > 135 µM
- MIC90 (Klebsiella pneumoniae): 8 µM (≈ 3.77 µg/mL)
- MIC90 (Enterobacter cloacae): > 135 µM
- MIC (Segatella copri): > 20 µM
- MIC [10]: > 20 µM
- MIC (Anaerostipes hadrus): > 20 µM
- Activity [11]: Non-Toxic
- Activity [12]: Non-Toxic
- Activity [13]: Non-Toxic
- solubility kinetic at 20 h, 100 µM [14]: 55 µM (≈ 25.9 µg/mL)
- fraction unbound at 4 h, 10 µM [15]: 0.029
- fraction unbound at 4 h, 10 µM [16]: 0.047

SMILES: CO[C@H]1/C=C/O[C@@]2(C)Oc3c(C)c(O)c4c(O)c(c(/C=N/N5CCN(C)CC5)c(O)c4c3C2=O)NC(=O)/C(C)=C\C=C\[C@H](C)[C@H](O)[C@@H](C)[C@@H](O)[C@@H](C)[C@H](OC(C)=O)[C@@H]1C [RIFAMPIN]
- Activity [17]: 1.4%
- Activity [18]: 100%

SMILES: Cc1[nH]c(C(=O)Nc2nc3c(OCC(C)N(C)C)cc(C(=O)O)cc3s2)c(Cl)c1Cl (centres undefined)
- MIC90 [1]: 10 µM (≈ 4.71 µg/mL)
- MIC90 [2]: 0.63 µM (≈ 0.297 µg/mL)
- MIC90 [3]: 40 µM (≈ 18.9 µg/mL)

SMILES: Cc1[nH]c(C(=O)Nc2nc3c(OC(CN4CCC(N)CC4)c4ccccc4)cc(C(=O)O)cc3s2)c(Cl)c1Cl (centres undefined)
- MIC90 [1]: 0.63 µM (≈ 0.371 µg/mL)
- MIC90 [2]: 0.63 µM (≈ 0.371 µg/mL)
- MIC90 [3]: 1.25 µM (≈ 0.736 µg/mL)
- Activity (Escherichia coli [4]): Active

SMILES: C[C@H]1COc2c(N3CCN(C)CC3)c(F)cc3c(=O)c(C(=O)O)cn1c23 [LEVOFLOXACIN ANHYDROUS]
- Activity [17]: 2.3%

SMILES: Cc1[nH]c(C(=O)Nc2nc3c(OC(CN4CCN(C)CC4)C4CC4)cc(C(=O)O)cc3s2)c(Cl)c1Cl (centres undefined)
- MIC90 [1]: 0.63 µM (≈ 0.348 µg/mL)
- MIC90 [2]: 0.63 µM (≈ 0.348 µg/mL)
- MIC90 [3]: 5 µM (≈ 2.76 µg/mL)
- MIC90 (Escherichia coli [4]): > 116 µM
- MIC90 (Staphylococcus aureus): 14 µM (≈ 7.73 µg/mL)
- MIC90 (Pseudomonas aeruginosa): > 116 µM
- MIC90 (Acinetobacter baumannii): > 116 µM
- MIC90 (Klebsiella pneumoniae): 7 µM (≈ 3.87 µg/mL)
- MIC90 (Enterobacter cloacae): > 116 µM
- Activity [19]: 99%
- Activity [20]: 99%

SMILES: Cc1[nH]c(C(=O)Nc2nc3c(OC(CN4CCOCC4)c4ccccc4)cc(C(=O)O)cc3s2)cc1F (centres undefined)
- MIC90 [1]: 10 µM (≈ 5.25 µg/mL)
- MIC90 [2]: 2.5 µM (≈ 1.31 µg/mL)
- MIC90 [3]: > 40 µM
- Activity (Staphylococcus aureus): inactive

SMILES: Cc1[nH]c(C(=O)Nc2nc3c(OC(CN4CCC(N(C)C)CC4)c4ccccc4)cc(C(=O)O)cc3s2)c(Cl)c1Cl (centres undefined)
- MIC90 [1]: 5 µM (≈ 3.08 µg/mL)
- MIC90 [2]: 2.5 µM (≈ 1.54 µg/mL)
- MIC90 [3]: 10 µM (≈ 6.17 µg/mL)
